Data reported in patent US11427783B2, “Perfuming compositions” (Firmenich SA, priority 2016, dated 2022).
Values joined by “and” are separate entries in the source; they are usually repeats but may differ in a detail not shown here. Equal entries are not always repeated. Where two headings read alike, the source gives them in different places.

Legend:
[1] = Volatility of perfuming compounds in air; assay type: physicochemical
[2] = Log P (n-octanol/water) of perfuming compounds
[3] = Table 5, perfuming compounds having a green note
[4] = Table 8, perfuming compounds having a sweet note
[5] = Table 6, perfuming compounds having a fruity note
[6] = n-octanol/water, perfuming compounds having a fruity note (Table 6)
[7] = perfuming compounds having a fruity note (Table 6)
[8] = Table 10, perfuming compounds having a woody note

`CC1(C)CC=C(CCC=O)CC1` gave a logP (physchem; n-octanol/water) of 3.3 and a Volatility [1, 3] of 417.92 μg/l air.

For `CCC(C)c1nccnc1OC` (stereo not drawn) [PYRAZOBUTYLE], the Volatility [1, 3] was 1617.21 μg/l air and the “Log P (n-octanol/water)” value [2, 3] was 2.88.

Work on `COC(C)(C)[C@H]1CC=C(C)CC1` yielded a logP (physchem; n-octanol/water) of 4.59 and a Volatility [1, 3] of 993.39 μg/l air.

With `CCOc1cc(C=O)ccc1O` [3-ethoxy-4-hydroxybenzaldehyde] the logP (physchem) was 1.27 and the “Volatility (μg/l air)” value [1, 4] was 0.11 μg/l air.

In the case of `CC1=C[C@H](C)[C@H]2[C@H](CCC(C)(C)[C@H]2O)C1` (racemic), the logP (physchem; n-octanol/water) is reported as 5.24 and the “Log P (n-octanol/water)” value [2, 5] is reported as 5.24.

Compound `CCCCCC1(C)CCC(C)(C)C1=O` (racemic) has a logP (physchem; n-octanol/water) of 4.63.

In the case of `CCCCCCOC(=O)CCCCC` [HEXYL HEXANOATE], the logP (physchem; n-octanol/water) is reported as 5.56 and the “Volatility (μg/l air)” value [1, 5] is reported as 105.52 μg/l air.

With `CCCCCCCC=O` [OCTANAL] the logP (physchem; n-octanol/water) was 2.94 and the Volatility [1, 3] was 4147.61 μg/l air.

In the case of `CCCCCC(=O)OC` [METHYL HEXANOATE], the logP (physchem; n-octanol/water) is reported as 2.65 and the “Log P (n-octanol/water)” value [2, 6] is reported as 2.65.

For `CC(=O)OC/C=C(/C)CCC=C(C)C` [(2Z)-3,7-dimethyl-2,6-octadien-1-yl acetate], the logP (physchem; n-octanol/water) was 3.81 and the “Log P (n-octanol/water)” value [2, 5] was 3.81.

With `C=CCCCCCCCCO` [9-DECEN-1-OL] the logP (physchem; n-octanol/water) was 3.7 and the “Log P (n-octanol/water)” value ([2]; Table 7, citrus note) was 3.70.

In the case of `CCCC(C)=CCOC(C)=O` (mixture of isomers), the Volatility [1, 3] is reported as 4131.05 μg/l air, the Volatility [1, 7] is reported as 4131.05 μg/l air and the “Log P (n-octanol/water)” value [2, 3] is reported as 3.11. For the same compound, the “Log P (n-octanol/water)” value [2, 6] was 3.11.

With `CCCCCCCCC1CCC(=O)O1` (racemic) [(+−)-5-octyldihydro-2(3H)-furanone] the logP (physchem; n-octanol/water) was 3.82 and the “Volatility (μg/l air)” value [1, 5] was 1.44 μg/l air.

For `COC1(C)CCC23CC1C(C)(C)C2CCC3C` (racemic) [(+−)-8-methoxycedrane], the “Volatility (μg/l air)” value [1, 8] was 42.22 μg/l air and the “Log P (n-octanol/water)” value [2, 8] was 7.59.

Compound `C=C1CCCC(C)(C)C1C(=O)OC` (racemic) has a logP (physchem; n-octanol/water) of 3.93.

In the case of `CC(=O)OCC=C(C)CCC=C(C)C` (mixture of isomers) [GERANYL ACETATE (A) + NERYL ACETATE (B)], the Volatility [1, 3] is reported as 85.23 μg/l air and the “Log P (n-octanol/water)” value [2, 3] is reported as 3.99.

With `CC1=CCC(CCC(C)C(C)O)C1(C)C` (racemic) the logP (physchem; n-octanol/water) was 4.68 and the “Volatility (μg/l air)” value [1, 8] was 5.22 μg/l air.

In the case of `C/C=C/C(=O)C1=C(C)C=CCC1(C)C`, the logP (physchem; n-octanol/water) is reported as 3.27, the “Volatility (μg/l air)” value [1, 5] is reported as 119.10 μg/l air and 91.38 μg/l air and the “Volatility (μg/l air)” value [1, 8] is reported as 91.38 μg/l air.

In the case of `CCC(=O)O[C@H]1C[C@@H]2CC[C@@]1(C)C2(C)C`, the logP (physchem; n-octanol/water) is reported as 4.66 and the “Volatility (μg/l air)” value [1, 8] is reported as 216.42 μg/l air.

With `CC(=O)OC1CCC2C(C)(C)CCCC2(C)C1` (stereo not drawn) [5,5,8a-trimethyldecahydro-2-naphthalenyl acetate] the logP (physchem; n-octanol/water) was 5.5 and the “Volatility (μg/l air)” value [1, 8] was 14.41 μg/l air.

With `CC1(C)C2C[C@H]3CCC(=O)C=C3[C@@H]1C2` the “Volatility (μg/l air)” value [1, 8] was 4.86 μg/l air and the “Log P (n-octanol/water)” value [2, 8] was 3.00.

In the case of `CC1(C)[C@@H]2CC[C@@]1(C)C(=O)C2`, the Volatility [1, 7] is reported as 555.04 μg/l air and the “Log P (n-octanol/water)” value [2, 6] is reported as 2.50.

`CC(=O)OCc1ccccc1` [benzyl acetate] gave a logP (physchem; n-octanol/water) of 2.04.

For `CC(=O)O[C@@H]1CC[C@@H]2C(C)(C)CCC[C@@]2(C)C1` (racemic), the logP (physchem; n-octanol/water) was 5.5 and the “Volatility (μg/l air)” value [1, 8] was 14.41 μg/l air.

In the case of `CCOC(C)OC1CCCCCCCCCCC1` (racemic) [(+−)-(1-ethoxyethoxy)cyclododecane], the logP (physchem; n-octanol/water) is reported as 6.68 and the “Volatility (μg/l air)” value [1, 8] is reported as 5.04 μg/l air.

For `CC/C=C\C[C@H]1C(=O)CC[C@@H]1CC(=O)OC` (racemic), the logP (physchem; n-octanol/water) was 2.33 and the “Volatility (μg/l air)” value [1, 5] was 1.59 μg/l air.

`CCCCCCC=O` [HEPTANAL] gave a logP (physchem; n-octanol/water) of 2.15 and a Volatility [1, 3] of 22184.00 μg/l air.

Work on `CC/C=C\CCOC(=O)c1ccccc1O` [(3Z)-3-hexen-1-yl salicylate] yielded a logP (physchem; n-octanol/water) of 4.83 and a Volatility [1, 3] of 4.34 μg/l air.

In the case of `CCCCCCC(=O)OCC` [ethyl heptanoate], the logP (physchem; n-octanol/water) is reported as 3.58.

With `CC(=O)/C=C/C1C(C)=CCCC1(C)C` (racemic) the logP (physchem) was 4.06 and the Volatility [1, 3] was 68.11 μg/l air.

For `CCOC(=O)Cc1ccccc1` [ETHYL PHENYLACETATE], the logP (physchem) was 2.1.

For `C=CCOC(=O)CCCCC` [ALLYL HEXANOATE], the logP (physchem; n-octanol/water) was 3.62.

For `CC(=O)/C=C/C1=C(C)CCCC1(C)C` [(3E)-4-(2,6,6-trimethyl-1-cyclohexen-1-yl)-3-buten-2-one], the logP (physchem; n-octanol/water) was 3.88 and the “Volatility (μg/l air)” value [1, 8] was 35.41 μg/l air.

For `CCCCCC1C(=O)CCC1CC(=O)OC` (single isomer, unassigned; (+)), the “Volatility (μg/l air)” value [1, 8] was 1.71 μg/l air and the “Log P (n-octanol/water)” value [2, 8] was 2.95.

For `CC1COCc2cc3c(cc21)C(C)(C)C(C)C3(C)C` (racemic), the logP (physchem) was 6.57 and the “Volatility (μg/l air)” value [1, 5] was 1.59 μg/l air.

With `C/C=C/c1ccc(OC)cc1` [1-methoxy-4-[(1E)-1-propen-1-yl]benzene] the logP (physchem) was 3.58, the “Volatility (μg/l air)” value [1, 4] was 184.60 μg/l air and the “Volatility (μg/l air)” value ([1]; Table 9, perfuming compounds having a gourmand note) was 184.60 μg/l air.

With `CC/C(=C\C[C@H]1CC=C(C)C1(C)C)CO` the logP (physchem; n-octanol/water) was 4.44 and the “Volatility (μg/l air)” value [1, 8] was 2.75 μg/l air.

With `CC(C)[C@@H]1CC[C@@H](C)CC1=NO` the logP (physchem; n-octanol/water) was 2.81 and the Volatility [1, 3] was 22.29 μg/l air.

With `CCOC(C)=O` [ETHYL ACETATE] the logP (physchem) was 0.8.
